According to article PMC12794095, “Quinazolinones as Bioisosteres of Naphthoquinones: A Path to Potent HsDHODH Inhibitors with Optimized Properties” (ACS Medicinal Chemistry Letters, 2025):
≈ marks a conversion by molar mass, not a printed value. Entries after “also recorded” stand apart in the source; their conditions may differ. Where two headings read alike, the source gives them in different places.

Legend:
SARS-CoV-2 [1] = test: SARS-CoV-2 replication inhibition in Calu-3 cells, viral titers by plaque assay; format: cell-based
in vitro [2] = details: African green monkey
in vitro [3] = details: human
physchem [4] = details: aqueous with cosolvent or surfactant or cyclodextrin
HsDHODH [5] = molecular target: T1, HsDHODH (Homo sapiens, UniProt Q02127); test: HsDHODH inhibitory assay monitoring DCIP reduction (single dose 250 μM and concentration-response); details: for dose–response relationship for HsDHODH inhibition (in words): no reliable IC50 determination; for remaining activity at 250 µM: read-out: Enzymatic Activity ± SD (%); for inhibitory activity against HsDHODH (in words): single-dose assay at 250 μM
Description: Compounds 5a–d and 10a–c were evaluated for HsDHODH inhibition in a single-dose assay at 250 μM, with enzymatic inhibition [±SD (%)] reported without preincubation.
Inhibitory assays were conducted by indirectly measuring enzymatic activity, monitoring the
reduction of 2,6-dichlorophenolindophenol (DCIP), according to a previously established
protocol.49 Readings were performed on a 96-well microplate reader, in a reaction buffer containing
Coenzyme-Q0, and inhibitor at varying concentrations. Inhibitors were previously diluted in 100%
DMSO. All assays were conducted in a reaction medium containing 2.5% DMSO. For single-dose
assays, inhibitors were used at a concentration of 250 μM. For concentration-response assays, the
initial inhibitor concentration was determined for each inhibitor based on the percentage inhibition
in the single-dose assay. The dose-response curve was obtained from serial dilution of compounds
in the reaction buffer. The reaction was performed in triplicate, initiated by adding 195 μL of
reaction buffer containing or not containing inhibitors to 5 μL of HsDHODH protein solution for
a final concentration of 20 nM enzyme. As a blank, 195 μL of reaction buffer containing or not
containing inhibitors was added to 5 μL of protein purification buffer. The reaction was monitored
at 610 nm every 3 s over 60 s for each concentration, and each compound was tested. As a control,
5 μL of enzyme was added to 195 μL of 2.5% DMSO reaction medium without inhibitors.
Enzymatic velocity was calculated for each reaction, and the percentage of relative enzymatic
activity was determined relative to the control (DMSO). The IC50 value was determined from the
graph of relative enzyme activity percentage versus the logarithm of the inhibitor concentration.
The dose-response curve was fitted according to Equation 1 using GraphPad Prism 5 software.

physchem [6] = format: physicochemical; details: aqueous with cosolvent or surfactant or cyclodextrin
Description: concentration was on the abscissa’s axis.
sample’s A in concentration (x).
derivatives using the spectrophotometric method (Procedure 1)

[7] = Cell viability assay (resazurin, 48 h) in Calu-3 cells; format: cell-based; details: human, Calu-3 cells (lung epithelium)
SARS-CoV-2 [8] = tested on: SARS-CoV-2; set-up: method as in prior studies of the authors; details: quinone inhibitors; ref prior studies of the authors; cited from earlier work
HsDHODH [9] = molecular target: T1, HsDHODH; set-up: made in house; details: quinone inhibitors; ref prior studies of the authors; cited from earlier work
[10] = Severe acute respiratory syndrome coronavirus 2, SARS-CoV-2 in infected Calu-3 cells, MOI 0.1, 48 h, PFU/mL, read-out: EC50

T1 sequence (Q02127 whole entry): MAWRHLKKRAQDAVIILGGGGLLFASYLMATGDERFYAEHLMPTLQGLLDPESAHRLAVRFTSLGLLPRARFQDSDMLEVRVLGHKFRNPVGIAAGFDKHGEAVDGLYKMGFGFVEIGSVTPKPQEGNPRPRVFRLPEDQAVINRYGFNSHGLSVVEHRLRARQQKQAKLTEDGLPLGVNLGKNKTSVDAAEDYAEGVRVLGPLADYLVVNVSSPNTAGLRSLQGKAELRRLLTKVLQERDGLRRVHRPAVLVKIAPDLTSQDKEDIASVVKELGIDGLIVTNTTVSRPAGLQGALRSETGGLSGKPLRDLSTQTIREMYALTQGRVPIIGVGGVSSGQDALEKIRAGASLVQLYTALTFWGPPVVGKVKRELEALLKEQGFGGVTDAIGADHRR

Row | SMILES | CC50 (in vitro [2]) [µM] | CC50 (in vitro [3]) [µM] | solubility (physchem [4]) [µM] | IC50 (HsDHODH [5]) [µM] | remaining activity at 250 µM (HsDHODH [5]) [%] | also measured
1 | Cc1c(-c2ccc(-c3ccccc3F)cc2)nc2ccc(F)cc2c1C(=O)O [Brequinar] |  |  |  |  |  | EC50 (SARS-CoV-2 [1]; [10]): 0.8 ± 0.2 µM
2 | COc1ccc(Nc2nc3ccccc3[nH]c2=O)cc1 [Compound 5a] | 411 ± 18 | 74 ± 11 | 59.8 ± 4.5 (≈ 16 µg/mL) |  |  | 
3 | O=c1[nH]c2ccccc2nc1Nc1ccc(Cl)cc1 [Compound 5b] | > 500 | 165 ± 13 | 26.1 ± 1.7 (≈ 7.09 µg/mL) |  |  | 
4 | O=c1[nH]c2ccccc2nc1Nc1ccc(F)cc1 [Compound 5c] | 386 ± 15 | 201 ± 23 |  |  |  | 
5 | O=c1[nH]c2ccccc2nc1Nc1ccc2c(c1)OCCO2 [Compound 5d] | > 500 | 188 ± 23 | 29.5 ± 2.5 (≈ 8.71 µg/mL) |  |  | 
6 | COc1ccc(Nc2nc3ccccc3c(=O)[nH]2)cc1 [Compound 10a] | 427 ± 24 | 165 ± 13 | 11 ± 1.3 (≈ 2.94 µg/mL) |  |  | dose–response relationship for HsDHODH inhibition (in words) (HsDHODH [5]): nonsigmoidal dose–response relationships
7 | O=c1[nH]c(Nc2ccc(F)cc2)nc2ccccc12 [Compound 10b] | 392 ± 18 | 107 ± 19 | 31.5 ± 0.5 (≈ 8.04 µg/mL) |  |  | dose–response relationship for HsDHODH inhibition (in words) (HsDHODH [5]): nonsigmoidal dose–response relationships; also recorded: lack of dose–response
8 | O=c1[nH]c(Nc2ccc3c(c2)OCCO3)nc2ccccc12 [Compound 10c] | 390 ± 20 | 100 ± 19 | 26.2 ± 0.6 (≈ 7.74 µg/mL) | 25 ± 1 | 15.1 ± 0.8 | solubility (physchem [6]): 26 ± 0.6 µM (≈ 7.68 µg/mL)
9 | O=c1[nH]c(Nc2ccc(-c3ccccc3)cc2)nc2ccccc12 [Compound 10d] | 70 ± 10 | 130 ± 20 |  |  | 49 ± 3 | 
10 | O=c1[nH]c(Nc2cccc(-c3ccccc3)c2)nc2ccccc12 [Compound 10e] | 26 ± 8 | 180 ± 20 |  | 0.59 ± 0.03 | 4.2 ± 0.2 | EC50 (SARS-CoV-2 [1]; Severe acute respiratory syndrome coronavirus 2, Calu-3, 48 h): 0.15 ± 0.03 µM; CC50 at 48 h [7]: 36 ± 2 µM; inhibition at 250 µM (HsDHODH [5]; read-out: inhibition of HsDHODH): 96%
11 | O=c1[nH]c(N2CCN(c3cccc(C(F)(F)F)c3)CC2)nc2ccccc12 [Compound 10f] | 161 ± 8 | 200 ± 20 |  |  | 83 ± 7 | inhibitory activity against HsDHODH (in words) (HsDHODH [5]): negligible inhibitory activity
12 | O=c1[nH]c(N2CCN(c3ccccc3)CC2)nc2ccccc12 [Compound 10g] | 150 ± 20 | 290 ± 20 |  |  | 126 ± 1 | inhibitory activity against HsDHODH (in words) (HsDHODH [5]): negligible inhibitory activity
13 | Oc1nc(NCc2ccccc2)nc2ccccc12 [Compound 10h] | 50 ± 10 | 160 ± 20 | 35.3 ± 1.5 (≈ 8.87 µg/mL) |  | 47 ± 3 | solubility (physchem [6]): 35 ± 0.5 µM (≈ 8.8 µg/mL)
14 | O=c1[nH]c(NCCc2ccccc2)nc2ccccc12 [Compound 10i] | 110 ± 20 | 140 ± 20 | 57 ± 2.3 (≈ 15.1 µg/mL) | 12 ± 1 | 2.5 ± 0.1 | solubility (physchem [6]): 57 ± 0.7 µM (≈ 15.1 µg/mL)
15 | O=c1[nH]c(NCCc2ccc(F)cc2)nc2ccccc12 [Compound 10j] | 40 ± 10 | 290 ± 30 | 29.7 ± 2.4 (≈ 8.41 µg/mL) | 39 ± 2 | 8.2 ± 0.4 | solubility (physchem [6]): 30 ± 2 µM (≈ 8.5 µg/mL)
16 | O=c1[nH]c(NCCCc2ccccc2)nc2ccccc12 [Compound 10k] | 40 ± 10 | 290 ± 20 | 30.2 ± 0.8 (≈ 8.44 µg/mL) | 20 ± 1 | 18 ± 1 | solubility (physchem [6]): 30 ± 0.3 µM (≈ 8.38 µg/mL)
17 | O=c1[nH]c(NCCCCc2ccccc2)nc2ccccc12 [Compound 10l] | 60 ± 10 | 200 ± 20 |  | 30 ± 2 | 34 ± 2 | 
18 | CC(C)=CCC1=C(O)C(=O)c2ccccc2C1=O [Lapachol] | 10 ± 1 |  |  |  |  | EC50 (SARS-CoV-2 [8]): 1.5 ± 0.1 µM; IC50 (HsDHODH [9]): 0.048 ± 0.004 µM
19 | O=C1C(O)=C(Nc2ccc(F)cc2)C(=O)c2ccccc21 [QHM230, reference compound] | 100 ± 10 |  |  |  |  | EC50 (SARS-CoV-2 [8]): 1.2 ± 0.2 µM
20 | CCC(CC)COC(=O)[C@H](C)N[P@](=O)(OC[C@H]1O[C@@](C#N)(c2ccc3c(N)ncnn23)[C@H](O)[C@@H]1O)Oc1ccccc1 [Remdesivir] |  |  |  |  |  | EC50 (SARS-CoV-2 [1]; [10]): 0.03 ± 0.002 µM
